Read-outs that look alike come from different tables or passages of the source.
Target: T1, human androgen receptor (hAR) (Homo sapiens, UniProt P10275)
T1 sequence (P10275 1-920): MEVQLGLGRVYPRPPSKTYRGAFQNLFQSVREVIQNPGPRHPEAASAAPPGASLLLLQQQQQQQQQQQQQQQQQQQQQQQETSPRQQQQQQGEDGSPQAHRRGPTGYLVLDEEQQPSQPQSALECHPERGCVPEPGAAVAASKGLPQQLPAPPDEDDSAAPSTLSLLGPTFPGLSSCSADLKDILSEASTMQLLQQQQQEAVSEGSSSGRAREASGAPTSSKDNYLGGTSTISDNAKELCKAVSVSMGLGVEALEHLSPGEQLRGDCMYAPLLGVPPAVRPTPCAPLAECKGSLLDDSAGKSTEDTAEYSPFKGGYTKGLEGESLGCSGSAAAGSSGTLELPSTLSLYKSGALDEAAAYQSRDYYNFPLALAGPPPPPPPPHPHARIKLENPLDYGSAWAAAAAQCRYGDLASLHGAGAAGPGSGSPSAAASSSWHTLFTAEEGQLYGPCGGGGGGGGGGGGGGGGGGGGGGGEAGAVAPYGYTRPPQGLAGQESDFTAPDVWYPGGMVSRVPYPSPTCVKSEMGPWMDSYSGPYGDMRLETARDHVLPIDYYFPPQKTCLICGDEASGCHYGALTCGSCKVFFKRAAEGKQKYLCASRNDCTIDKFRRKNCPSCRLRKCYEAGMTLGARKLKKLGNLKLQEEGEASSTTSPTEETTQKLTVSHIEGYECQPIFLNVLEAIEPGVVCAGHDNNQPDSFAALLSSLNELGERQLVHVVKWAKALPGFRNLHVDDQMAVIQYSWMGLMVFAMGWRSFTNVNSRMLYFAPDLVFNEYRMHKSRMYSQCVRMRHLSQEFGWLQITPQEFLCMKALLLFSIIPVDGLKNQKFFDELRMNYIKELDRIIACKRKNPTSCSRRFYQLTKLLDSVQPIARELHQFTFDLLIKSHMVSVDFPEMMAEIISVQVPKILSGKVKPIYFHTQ
Assay: Functional response test: hAR transactivation (luciferase reporter) in HALP2 cells
Type: cell-based
Settings: for EC50: agonism, HALP2 cells (HeLa, hAR + ARE-luciferase), 20 hours at 37° C.
Excerpt: This test constitutes a method of identifying pure or partial agonists which mimic the effects of natural hormones, such as DHT (dihydrotestosterone) in the present case or, on the other hand, antagonists which inhibit them.
For this transactivation test, plasmids encoding a reporter gene and the human androgen receptor (hAR) are introduced together by transfection into the HeLa cell line. The reporter plasmid contains luciferase cDNA under the control of the AREs contained in the promoter sequences of the probasin gene (3xpbAREminicoll-luciferase/pGL3-puro). The expression of the reporter gene constitutes an indication of the transcriptional activity of hAR. It also encodes a protein allowing the cells expressing it to resist a treatment with puromycin. The plasmid encoding hAR contains the cDNA of hAR under the control of the Cytomegalovirus (CMV) promoter. It also encodes a protein allowing the cells expressing it to resist a treatment with neomycin. The treatment of cells with increasing amounts of potentially agonistic compounds will increase the expression of the reporter gene. To detect antagonists, on the other hand, increasing doses of test compounds are tested in the presence of […] of DHT. The expression of the reporter gene, which is constant for each dose of DHT, decreases when the concentration of the test compounds increases.
For this test, HeLa cells were obtained from the American Type Culture Collection (Rockville, Md.) and cultivated in DMEM medium containing 4.5 g/l of glucose, supplemented with Glutamax and with nonessential amino-acids and with 10% of foetal calf serum (SVF; Dominique Dutscher).
On the day before transfection, a million cells were seeded in DMEM medium without phenol red, supplemented with Glutamax and with desteroided SVF (5%) in Petri dishes. The cells were transfected with 4 μg of the puromycin resistance plasmids pcDNA3-hAR and 3xpbAREminicoll-luciferase/pGL3 using the reagent “Lipofectamine plus” (Invitrogen), following the supplier's recommendations. The day after transfection, the cells were seeded to different cell densities (10,000 to 100,000 cellules per Petri dish). Two days after transfection, the transfected cells were selected in DMEM medium without phenol red, supplemented with Glutamax and with desteroided SVF (5%) containing 400 μg/mL of G418 (Invitrogen) and 150 ng/mL of puromycin (Sigma). The culture medium was renewed weekly until resistant clones appeared. The resistant clones were removed and amplified before being tested for their functional response. […]
The functional response test was conducted on 96-well plates. The HALP2 cells were seeded (30,000 cells per well) 24 hours before the phase of stimulation in DMEM medium containing 4.5 g/L of glucose, supplemented with Glutamax and nonessential amino-acids, and with desteroided SVF (5%).
On the day of stimulation, the seeding medium was replaced by DMEM medium without phenol red, supplemented with Glutamax and with desteroided SVF (5%). […] The cells were placed in contact with the compounds for 20 hours at 37° C.

[1] = antagonism, concentration which increases the EC50 of the DHT by a factor of 2, Schild regression, HALP2 cells

| SMILES | KSchild (nM) potency | KSchild (nM) potency [1] | EC50 |
| --- | --- | --- | --- |
| N#CCN1C(=O)N(c2ccc(Cl)c(C(F)(F)F)c2)C(=O)C1c1ccc(O)cc1 (stereo not shown) [Example 93] | 30 nM |  |  |
| CC1(c2ccc(O)cc2)C(=O)N(c2ccc(C#N)c(C(F)(F)F)c2)C(=O)N1CS(C)(=O)=O (stereo not shown) [Example 222.3, 4-[2,5-dioxo-4-(4-hydroxyphenyl)-4-methyl-3-[(methylsulphonyl)methyl]imidazolidin-1-yl]-2-trifluoromethylbenzonitrile] |  | 200 nM |  |
| N#CCN1C(=O)N(c2ccc(Cl)c(Cl)c2)C(=O)C1c1ccc(O)cc1 (stereo not shown) [Example 91] |  | 94.87 nM | 94.9 nM |
| CN1C(=O)N(c2ccc(C#N)c(C(F)(F)F)c2)C(=O)C1(c1ccc(O)cc1)C(F)(F)F (stereo not shown) [Example 179, 4-[2,5-dioxo-4-(4-hydroxyphenyl)-3-methyl-4-trifluoromethylimidazolidin-1-yl]-2-trifluoromethylbenzonitrile] | 15 nM |  |  |
| C=CCN1C(=O)N(c2ccc(C#N)c(C(F)(F)F)c2)C(=O)C1c1ccc(O)cc1 (stereo not shown) [Example 12, 4-[2,5-dioxo-4-(4-hydroxyphenyl)-3-(2-propenyl)imidazolidin-1-yl]-2-trifluoromethyl-benzonitrile] | 24.49 nM |  |  |
| CCOCCCN1C(=O)N(c2ccc(F)c(F)c2)C(=O)C1c1ccc(O)cc1 (stereo not shown) [Example 85] |  | 300 nM | 300 nM |
| N#CCCN1C(=O)N(c2cccc(C(F)(F)F)c2)C(=O)C1c1ccc(O)cc1 (stereo not shown) [Example 128] |  | 244.95 nM | 245 nM |
| CC1(c2ccc(O)cc2)C(=O)N(c2ccc(Cl)c(Cl)c2)C(=O)N1CCCCO (stereo not shown) [Example 22, 1-(3,4-dichlorophenyl)-3-(4-hydroxybutyl)-4-(4-hydroxyphenyl)-4-methylimidazolidine-2,5-dione] |  | 15 nM | 15 nM |
| CC1(c2ccc(O)cc2)C(=O)N(c2ccc(C#N)c(C(F)(F)F)c2)C(=O)N1CCO (stereo not shown) [Example 239, 4-[2,5-dioxo-3-(2-hydroxyethyl)-4-(4-hydroxyphenyl)-4-methylimidazolidin-1-yl]-2-trifluoromethylbenzonitrile] | 10 nM |  |  |
| O=C1C(c2ccc(O)cc2)N(CCCCO)C(=O)N1c1ccc(F)c(C(F)(F)F)c1 (stereo not shown) [Example 135] | 600 nM |  |  |
| CN1C(=O)N(c2ccc(C(F)(F)F)cc2Cl)C(=O)C1(C)c1ccc(O)cc1 (stereo not shown) [Example 29, 1-(2-chloro-4-trifluoromethylphenyl)-3,4-dimethyl-4-(4-hydroxyphenyl)imidazolidine-2,5-dione] |  | 60 nM | 60 nM |
| CN1C(=O)N(c2ccc(C#N)c(C(F)(F)F)c2)C(=O)C1(C)c1ccc(O)c(F)c1 (stereo not shown) [Example 172, 4-[4-(3-fluoro-4-hydroxyphenyl)-3,4-dimethyl-2,5-dioxoimidazolidin-1-yl]-2-trifluoromethylbenzonitrile] | 8 nM |  |  |
| O=C1C(c2ccc(O)cc2)N(CCCCO)C(=O)N1c1cccc(C(F)(F)F)c1 (stereo not shown) [Example 136] |  | 600 nM | 600 nM |
| CC12C(=O)N(c3ccc(C#N)c(C(F)(F)F)c3)C(=O)N1Cc1cc(O)ccc12 (stereo not shown) [Example 158, 4-[1,3-dioxo-7-hydroxy-9b-methyl-1,2,3,9b-tetrahydro-5H-imidazo[5,1-a]isoindol-2-yl]-2-trifluoromethylbenzonitrile] | 30 nM |  |  |
| CN1C(=O)N(c2ccc(C#N)c(C(F)(F)F)c2)C(=O)C1(C)c1ccc(OCCO)cc1 (stereo not shown) [Example 343] | 60 nM |  |  |
| C=CCN1C(=O)N(c2ccc(F)c(C(F)(F)F)c2)C(=O)C1c1ccc(O)cc1 (stereo not shown) [Example 62] |  | 34.64 nM | 34.6 nM |
| C=CCN1C(=O)N(c2cccc(C(F)(F)F)c2)C(=O)C1c1ccc(O)cc1 (stereo not shown) [Example 64] |  | 26.21 nM | 26.2 nM |
| C=CCN1C(=O)N(c2ccc(F)c(Cl)c2)C(=O)C1c1ccc(O)cc1 (stereo not shown) [Example 63] |  | 69.28 nM | 69.3 nM |
| CN1C(=O)N(c2ccc(C#N)c(C(F)(F)F)c2)C(=O)C1(C)c1ccc(O)cc1F (stereo not shown) [Example 178, 4-[3,4-dimethyl-2,5-dioxo-4-(2-fluoro-4-hydroxyphenyl)imidazolidin-1-yl]-2-trifluoromethylbenzonitrile] | 10 nM |  |  |
| CC1(c2ccc(O)cc2)C(=O)N(c2ccc(C#N)c(C(F)(F)F)c2)C(=O)N1CO (stereo not shown) [Example 228.1, 4-[2,5-dioxo-3-hydroxymethyl-4-(4-hydroxyphenyl)-4-methylimidazolidin-1-yl]-2-trifluoromethylbenzonitrile] | 150 nM |  |  |
| CCC1(c2ccc(O)cc2)C(=O)N(c2ccc(C#N)c(C(F)(F)F)c2)C(=O)N1C (stereo not shown) [Example 183, 4-[2,5-dioxo-4-ethyl-4-(4-hydroxyphenyl)-3-methylimidazolidin-1-yl]-2-trifluoromethylbenzonitrile] |  | 2 nM |  |
| COc1ccc([C@]2(C)C(=O)N(c3ccc(C#N)c(C(F)(F)F)c3)C(=O)N2C)cc1 [Example 153, (R)-4-[3,4-dimethyl-2,5-dioxo-4-(4-methoxyphenyl)imidazolidin-1-yl]-2-trifluoromethylbenzonitrile] | 5.66 nM |  |  |
| CCOCCCN1C(=O)N(c2ccc(F)c(C(F)(F)F)c2)C(=O)C1c1ccc(O)cc1 (stereo not shown) [Example 87] |  | 77.46 nM | 77.5 nM |
| COc1ccc(C2(C)C(=O)N(c3ccc(C#N)c(C(F)(F)F)c3)C(=O)N2C)c(C)c1 (stereo not shown) [Example 163, 4-[3,4-dimethyl-2,5-dioxo-4-(4-methoxy-2-methylphenyl)imidazolidin-1-yl]-2-trifluoromethylbenzonitrile] | 80 nM |  |  |
| CCOCCCN1C(=O)N(c2cccc(C(F)(F)F)c2)C(=O)C1c1ccc(O)cc1 (stereo not shown) [Example 89] |  | 200 nM | 200 nM |
| C=CCN1C(=O)N(c2ccc([N+](=O)[O-])cc2)C(=O)C1c1ccc(O)cc1 (stereo not shown) [Example 65] | 5.43 nM |  |  |
| C=CCN1C(=O)N(c2ccc(Cl)c(Cl)c2)C(=O)C1(C)c1ccc(O)cc1 (stereo not shown) [Example 20, 1-(3,4-dichlorophenyl)-4-(4-hydroxyphenyl)-4-methyl-3-(2-propenyl)imidazolidine-2,5-dione] |  | 3 nM | 4 nM |
| N#Cc1ccc(N2C(=O)C(c3ccc(O)cc3)N(Cc3ccc4c(c3)OCO4)C2=O)cc1C(F)(F)F (stereo not shown) [Example 97] | 28.28 nM |  |  |
| CC1(c2ccc(O)cc2)C(=O)N(c2ccc(Cl)c(Cl)c2)C(=O)N1CCO (stereo not shown) [Example 146] |  | 30 nM | 30 nM |
| CN1C(=O)N(c2ccc(C#N)c3c2OCCO3)C(=O)C1(C)c1ccc(O)cc1 (stereo not shown) [Example 35, 4-[3,4-dimethyl-2,5-dioxo-4-(4-hydroxyphenyl)imidazolidin-1-yl]-2,3-(1,2-ethylenedioxy)-benzonitrile] | 36.34 nM |  |  |

Source: patent US8168667B2 (Galapagos NV, priority 2006, dated 2012)
